From PMC5913645, “Methyl phenlactonoates are efficient strigolactone analogs with simple structure” (Journal of Experimental Botany, 2017)

What was measured:
OsD14 = molecular target: T1, OsD14 (Oryza sativa subsp. japonica, UniProt Q10QA5); experiment: In vitro hydrolysis assay, OsD14; format: biochemical, rice; conditions: 10 µM substrate, 50 µg ml^−1 protein, 37 °C, HPLC
T1 construct: made in house; host or cells: E. coli BL21 (DE3)
T1 sequence (Q10QA5 1-318): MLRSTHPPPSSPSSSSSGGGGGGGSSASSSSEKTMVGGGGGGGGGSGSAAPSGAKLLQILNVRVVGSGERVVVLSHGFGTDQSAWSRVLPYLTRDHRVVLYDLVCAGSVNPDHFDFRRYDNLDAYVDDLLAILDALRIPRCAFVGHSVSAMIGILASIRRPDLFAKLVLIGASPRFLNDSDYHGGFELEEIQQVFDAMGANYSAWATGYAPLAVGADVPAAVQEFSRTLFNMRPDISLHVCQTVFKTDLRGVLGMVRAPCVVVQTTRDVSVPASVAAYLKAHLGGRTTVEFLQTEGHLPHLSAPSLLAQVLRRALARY
From the text: Striga hermonthica ShHTL7 cDNA was used, GenBank accession KR013127, kindly provided by Tsuyoshi Ota, The University of Tokyo, Japan. Arabidopsis D14 (AtD14) cDNA, GenBank accession AY097402, was synthesized and cloned into pUC57 (GenScript). ShHTL7 and OsD14 cDNAs were amplified by RT-PCR using the primers shown in Supplementary Table S2, digested with BamHI and XhoI, and ligated into BamHI/XhoI-digested pGEX-6P-1 expression vector (GE Healthcare). Integrity of plasmids was confirmed by sequencing (KAUST Bioscience Core Lab). The plasmids were then transformed into E. coli BL21 (DE3) cells. The cells were grown in LB broth containing ampicillin ([…]), incubated at 37 °C until OD600 of 0.6 and induced with 0.1 mM isopropyl-β-D-thiogalactopyranoside at 16 °C for 16 h. Harvested cells were resuspended in lysis buffer: 50 mM Tris–HCl (pH 8.0), 200 mM NaCl, 0.5% Tween-20 and 2 mM dithiothreitol (DTT). After sonication on ice for 10 min, the lysate was centrifuged at 75 000 g for 30 min at 4 °C. Supernatant was allowed to bind to glutathione–sepharose beads (GE Healthcare) for 2 h at 4 °C, washed 3 times with buffer (50 mM Tris-HCl (pH 8.0), 200 mM NaCl, 2 mM DTT), and eluted by cleaving the GST moiety with PreScission™ Protease (GE Healthcare) at 4 °C overnight. Eluted protein was further purified by gel filtration using a HiLoad 16/60 Superdex200 prep grade column (GE Healthcare) on an AKTA prime system (GE Healthcare) in gel filtration buffer (10 mM HEPES pH 7.5, 50 mM KCl and 2 mM DTT). Protein eluted as a sharp single peak and purity was judged by 4–15% SDS-PAGE (Bio-Rad). Purified protein was concentrated using an Amicon 10K filter unit (Merck Millipore) and stored at −80 °C until use. A similar expression and purification protocol was followed for OsD14 protein, except that OsD14 was eluted from glutathione resins using 0.2 mM reduced glutathione (Sigma-Aldrich) without cutting the GST tag.
The hydrolysis of GR24 and MPs by ShHTL7/OsD14 was performed in a total volume of 0.5 ml of phosphate-buffered saline containing 10 µM of substrate. Purified ShHTL7/OsD14 was added at a concentration of 50 µg ml^−1 and incubated for the indicated time at 37 °C. After adding 1-indanol (10 µl of a 2.5 mg ml^−1 solution in methanol), as internal standard, solutions were filtered and transferred to HPLC vials. Hydrolysis of substrates was monitored by HPLC analysis using a Zorbax Eclipse Plus C18 column (3.5 µm, 2.1 × 150 mm), eluted by a gradient from 10% to 90% acetonitrile in water within 15 min, keeping the final condition for 4 min. […] Eluted compounds were detected using a diode array detector. Amounts of remaining substrates were determined by calculating corresponding peaks, in comparison with an internal standard.

S. hermonthica seeds = experiment: Striga hermonthica seed germination bioassay; format: in vivo; conditions: for EC50: Striga hermonthica, concentrations 10^–5 to 10^–12 M
Description: Parasitic weed seeds’ (S. hermonthica and P. ramosa) germination activity was studied as described previously ([Jamil et al., 2012]). Six pre-conditioned seed discs were placed in a 90 mm Petri dish containing a filter paper ring wetted with 0.9 ml sterile MilliQ water. Then 50 μl of SL analog solution (10^–5–10^–12 M) was applied on each of the six discs, for each concentration. GR24 solutions with equal concentrations and sterile MilliQ water were included as a positive and negative control, respectively. After application, seeds of S. hermonthica and P. ramosa were incubated in dark at 30 °C for 2 d and at 25 °C for 4 d, respectively. Germination (seeds with radicle emerging through the seed coat) was scored under a binocular microscope, and germination rate (%) was calculated. Statistical analyses were carried out using the statistical software package R (version 3.2.2). Dose–response curves and half-maximum effective concentrations (EC50) were calculated to determine optimum amount of MPs. The synthetic strigolactone analog GR24 was used as reference to estimate efficacy of selected compounds. EC50 and estimated response were calculated using the drc package (https://cran.r-project.org/web/packages/drc/) with a four parameter logistic curve (dose–response curve) ([Ritz and Streibig, 2005]).

SMILES	hydrolysis rate by OsD14 (rank order) (OsD14)	EC50 (S. hermonthica seeds) [nM]	S. hermonthica germination rate (S. hermonthica seeds; 1.0 μM) [%]	Striga germination activity, times weaker than GR24 (S. hermonthica seeds; from EC50 values)	germination activity, order among the chlorophenyl compounds (S. hermonthica seeds; species not given)
CC1=CC(OC=C2C(=O)OC3c4ccccc4CC23)OC1=O (stereo not shown) [GR24, reference compound]	highest hydrolysis rate with MP1, followed by MP7, GR24, and finally MP3	0.091	–	–	–
COC(=O)/C(=C/OC1C=C(C)C(=O)O1)c1ccc([N+](=O)[O-])cc1 (stereo not shown) [MP1, (E)-methyl 3-(4-methyl-5-oxo-2,5-dihydrofuran-2-yloxy)-2-(4-nitrophenyl)acrylate]	highest hydrolysis rate with MP1, followed by MP7, GR24, and finally MP3	1.5	75	around 17 times	–
COC(=O)/C(=C/OC1C=C(C)C(=O)O1)c1ccccc1 (stereo not shown) [MP3, (E)-methyl 3-(4-methyl-5-oxo-2,5-dihydrofuran-2-yloxy)-2-phenylacrylate]	highest hydrolysis rate with MP1, followed by MP7, GR24, and finally MP3	87	–	–	–
COC(=O)/C(=C/OC1C=C(C)C(=O)O1)c1ccc(Cl)cc1 (stereo not shown) [MP7]	highest hydrolysis rate with MP1, followed by MP7, GR24, and finally MP3	–	–	–	highest germination activity with MP7 (Cl in para position) followed by MP9 (ortho position) and MP8 (meta position)
